Data taken from US20060094783A1 (Tava Pharmaceutical Industries, Ltd., priority 1990, published 2006).
Where a name gives a salt, the structure may show the parent alone. Read-outs that look alike come from different tables or passages of the source. Each block holds one molecule with its values, some of them ahead of it.

How the values were obtained:
MAO-A [1] = target: T1, MAO-A (Rattus norvegicus, UniProt P21396); assay: Rat brain MAO inhibition by propargylamines (Table IA), A form; assay type: biochemical; details: between the two epimers
T1 construct: MAO activity determined in brain and liver; from tissue; host or cells: brain and liver of male Sprague-Dawley-derived rats
T1 sequence (P21396 1-526): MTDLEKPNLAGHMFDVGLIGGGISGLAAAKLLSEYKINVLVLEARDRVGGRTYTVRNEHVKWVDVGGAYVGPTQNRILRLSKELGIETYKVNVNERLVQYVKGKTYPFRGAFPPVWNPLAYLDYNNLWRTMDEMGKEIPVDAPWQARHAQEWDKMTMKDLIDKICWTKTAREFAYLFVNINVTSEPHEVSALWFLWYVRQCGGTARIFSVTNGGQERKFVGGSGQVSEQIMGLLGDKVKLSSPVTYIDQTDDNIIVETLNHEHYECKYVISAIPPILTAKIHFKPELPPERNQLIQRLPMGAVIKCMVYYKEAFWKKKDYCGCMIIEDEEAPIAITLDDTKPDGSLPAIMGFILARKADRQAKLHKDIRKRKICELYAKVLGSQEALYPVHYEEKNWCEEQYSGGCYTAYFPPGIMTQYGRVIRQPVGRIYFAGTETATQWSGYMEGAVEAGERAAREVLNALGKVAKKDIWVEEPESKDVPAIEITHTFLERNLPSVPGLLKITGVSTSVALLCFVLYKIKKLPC

guinea-pig ileum [2] = assay: Antagonism of bethanechol-induced (fixed dose) contractions of guinea-pig ileum; details: bethanechol 0.8 μM
[3] = tested on: maximal electroshock seizures in rats; assay: Maximal electroshock test (MES test) in rats; assay type: in vivo, rat; details: p.o., 50 mg/kg
Excerpt: (§1) The MES test is a classical model to indicate efficacy for partial and generalized seizures in humans. The agents' mechanism of action is via their ability to prevent the spread of seizures. Some agents, however, that prevent seizure spread have the side effect of lowering seizure threshold. These agents therefore have both proconvulsive and anticonvulsive side effects.

rabbit jejunum = assay: Tyramine potentiation in isolated jejunum preparation
Procedure: Peripheral effects of the hydrochloride salts of the enantiomers of PAI were determined in isolated rabbit or guinea-pig small intestine. These observations provide useful information on their relative peripheral side effects in humans. The first point of contact of the subject with an orally administered drug is the gastrointestinal tract where concentrations of the drug are much higher than after absorption and distribution. In the case of PAI hydrochloride (Mw=208), a 10 mg oral dose contained in a liquid volume of about 100 ml would be equivalent to a concentration of about 0.5 mM. In contrast, the therapeutic plasma concentration of (R)-PAI hydrochloride is in the nanomolar range.

[4] = tested on: maximal electroshock seizures in mice; assay: Maximal electroshock test (MES test) in mice; assay type: in vivo, mouse; details: i.p.
Excerpt: as §1

guinea-pig ileum [5] = assay: Antagonism of bethanechol-induced contractions of guinea pig ileum in presence of 400 μM PAI HCl enantiomer; details: 400 μM enantiomer
guinea-pig ileum [6] = assay: Antagonism of histamine-induced contractions of guinea-pig ileum; details: histamine 40 nM
MAO [7] = details: inhibiting oxidative deamination of tyramine, rat brain homogenate; cited from earlier work
MAO [8] = details: rat liver homogenate; cited from earlier work
[9] = tested on: MPTP-induced striatal DA and DOPAC depletions in mice; assay: Suppression of MPTP-induced dopaminergic toxicity (striatal DA and DOPAC); assay type: in vivo, mouse; details: PAI […] i.p., deprenyl 5 mg/kg i.p., 5 days
MAO-B [10] = target: T2, MAO-B (Rattus norvegicus, UniProt P19643); assay: Inhibition of MAO activity in vitro, rat brain homogenate, PEA substrate; assay type: biochemical; set-up: in a rat brain preparation of MAO; host or cells: rat brain preparation
T2 sequence (P19643 1-520): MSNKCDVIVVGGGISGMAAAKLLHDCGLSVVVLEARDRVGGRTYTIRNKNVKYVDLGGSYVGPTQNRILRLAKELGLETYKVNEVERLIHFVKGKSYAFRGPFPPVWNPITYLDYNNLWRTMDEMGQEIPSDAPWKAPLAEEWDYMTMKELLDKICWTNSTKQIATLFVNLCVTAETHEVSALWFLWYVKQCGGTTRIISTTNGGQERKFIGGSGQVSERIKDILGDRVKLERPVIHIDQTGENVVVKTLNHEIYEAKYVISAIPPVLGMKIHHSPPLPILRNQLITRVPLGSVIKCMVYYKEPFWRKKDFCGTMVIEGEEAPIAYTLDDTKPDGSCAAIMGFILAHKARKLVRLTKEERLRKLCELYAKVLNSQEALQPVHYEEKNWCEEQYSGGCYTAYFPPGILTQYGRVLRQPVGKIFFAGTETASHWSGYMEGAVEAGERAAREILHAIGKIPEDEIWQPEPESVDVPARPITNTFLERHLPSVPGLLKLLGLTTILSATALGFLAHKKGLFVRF
Procedure: The MAO enzyme source was a homogenate of rat brain in 0.3M sucrose, which was centrifuged at 600 g for 15 minutes. […] Substrate concentrations used were 50 uM (PEA) and 1 mM (5-HT). In the case of PEA, enzyme concentration was chosen so that not more than 10% of the substrate was metabolized during the course of the reaction. […] The column was washed with 1.5 ml water, the eluates pooled and the radioactive content determined by liquid scintillation spectrometry. Since the amine substrates are totally retained on the column, radioactivity in the eluate indicates the production of neutral and acidic metabolites formed as a result of MAO activity. Activity of MAO in the sample was expressed as a percentage of control activity in the absence of inhibitors after subtraction of appropriate blank values. The activity determined using PEA as substrate is referred to as MAO-B, and that determined using 5-HT as MAO-A.

MAO-B [11] = target: T2, MAO-B; details: rat whole brain, 1 mg/kg i.p. single dose
Procedure: Activity of MAO-B was determined in whole brain tissues as described hereinabove.

[12] = tested on: passive avoidance response in young rats; assay: Passive avoidance test in young rats (memory); assay type: in vivo, rat
Excerpt: The effect of R(+)-PAI and S(−)-PAI on the improvement or restoration of memory was investigated in the passive avoidance test. If the drug is effective, it increases the latency of response to enter a dark compartment or chamber where an electroshock has been experienced earlier by the rat being tested. The latency of the maximal response is 300 seconds.

MAO-B [13] = target: T2, MAO-B; assay: Inhibition of MAO activity in vivo, acute treatment, MAO-B; set-up: in a rat brain preparation of MAO; host or cells: rat brain preparation; details: for IC-50 MAO-B: I.P., 1 h after dose
[14] = tested on: tyramine pressor response in conscious rats; assay: Potentiation of tyramine pressor effect in conscious rats; assay type: in vivo, rat
Procedure: The left carotid artery and jugular vein were cannulated with fine polytene tubing (artery) or fine silicone rubber tubing connected to polyethylene tubing (vein), the distal end of which was brought under the skin to an anchor point behind the neck. The tubing was filled with heparinized saline solution, and plugged with a fine steel rod. The animals were treated with 2. mg chloramphenicol by intramuscular injection and allowed to recover from the operation overnight. The following day, the rats were placed in a high-walled container permitting free movement. […] Following an equilibration period of 30 to 40 minutes, tyramine injections (50 or 100 μg) were given, and blood pressure-responses recorded. An interval of at least 15 minutes was maintained between injections after return of blood pressure to control values. Control pressor responses were established, then one of the drugs was injected intraperitoneally, and tyramine responses were repeated over the next 4 hours. The area under the blood pressure response curve was estimated, and the ratio of this area after treatment to before treatment and to 1 to 3 hours after injection of the compounds, was determined using the average of 3 to 4 values obtained in the control period.

MAO-A [15] = target: T1, MAO-A; assay: Inhibition of MAO activity in vivo, acute treatment, MAO-A; details: for IC-50 MAO-A: rat
[16] = tested on: Metrazol seizure threshold in mice; details: Kupferberg 1989; cited from earlier work
[17] = pretreatment 1 h before MPTP 30 mg/kg s.c.

Relative potency A (+/− or R/S) (MAO-A [1]): 4
SMILES: C#CCNC1CCCc2ccccc21 (racemic) [Example 1-PAT, N-propargyl-1-aminotetralin]

SMILES: C#CCN[C@H]1CCc2ccccc21 [(S)-PAI HCl, S-(−)-N-Propargyl-1-aminoindan hydrochloride]
Percent relaxation (guinea-pig ileum [2]; PAI concentration 20 μM): 40-50
Percent relaxation (guinea-pig ileum [2]; PAI concentration 60 μM): 60-70
Percent relaxation (guinea-pig ileum [2]; PAI concentration 100 μM): 100
Percent relaxation (guinea-pig ileum [2]; PAI concentration 300 μM): 100
animals protected from seizures [3]: Four out of four
Percent relaxation (rabbit jejunum; PAI HCl enantiomer alone, 0.2-4.0 μM): 0
Percent relaxation (rabbit jejunum; tyramine 40 μM after 0.2 μM PAI HCl enantiomer): 0
Percent relaxation (rabbit jejunum; tyramine 40 μM after 2 μM PAI HCl enantiomer): 35
Percent relaxation (rabbit jejunum; tyramine 40 μM after 40 μM PAI HCl enantiomer): 33-50
ED50 anticonvulsant activity [4]: 57 mg/kg
gram-tension (guinea-pig ileum [5]; bethanechol 0.8 μM): 0 gram-tension
gram-tension (guinea-pig ileum [5]; bethanechol 2 μM): 0 gram-tension
gram-tension (guinea-pig ileum [5]; bethanechol 4 μM): 0 gram-tension
gram-tension (guinea-pig ileum [5]; bethanechol 8 μM): 0.6 gram-tension
gram-tension (guinea-pig ileum [5]; bethanechol 40 μM): 1.7 gram-tension
Percent relaxation (guinea-pig ileum [6]; PAI concentration 2 μM): 11
Percent relaxation (guinea-pig ileum [6]; PAI concentration 4 μM): 15
Percent relaxation (guinea-pig ileum [6]; PAI concentration 10 μM): 30
Percent relaxation (guinea-pig ileum [6]; PAI concentration 20 μM): 20
Percent relaxation (guinea-pig ileum [6]; PAI concentration 30 μM): 33
Percent relaxation (guinea-pig ileum [6]; PAI concentration 40 μM): 36
Percent relaxation (guinea-pig ileum [6]; PAI concentration 100 μM): 71
Percent relaxation (guinea-pig ileum [6]; PAI concentration 200 μM): 90
Percent relaxation (guinea-pig ileum [6]; PAI concentration 400 μM): 98
Percent relaxation (guinea-pig ileum [6]; PAI concentration 1000 μM): 100

SMILES: C#CCN(C)[C@H](C)Cc1ccccc1 [DEPRENYL R, reference compound]
times more potent than the S-(+) enantiomer (MAO [7]): 500 times
times as potent as the S enantiomer (MAO [8]): 15 times
striatal DA ([9]; drug alone): 170.6 ± 7.1 ng/mg protein
striatal DOPAC ([9]; drug alone): 5.6 ± 0.3 ng/mg protein
striatal DA [9, 17]: 197.0 ± 8.0 ng/mg protein
striatal DOPAC [9, 17]: 6.4 ± 0.5 ng/mg protein

Relative potency A (+/− or R/S) (MAO-A [1]): 3
SMILES: C#CCN(C)C1CCCc2ccccc21 (stereo not drawn) [Example 2-MPAI, N-Methyl-N-propargyl-1-aminotetralin]

SMILES: C#CCN[C@@H]1CCc2ccccc21 [R(+)PAI, R(+)-N-propargyl-1-aminoindan]
times more active for inhibition of MAO-B than MAO-A (MAO-B [10]): 29 times
times more active than S(−)PAI as inhibitor of MAO-B (MAO-B [10]): ~7,000 times
times more active than S(−)PAI as inhibitor of MAO-B (MAO-B [10]; listed as R(+)-PAI): about 7000 times
time of maximal inhibition of MAO-B after injection (MAO-B [11]): 6 h
percent increase of latency After Electroshock vs corresponding group ([12]; Protocol A, anoxia-lesioned rats): 19%
percent increase of latency After Electroshock vs corresponding group ([12]; Protocol A, control rats): +9%
percent increase of latency After Electroshock vs corresponding group ([12]; Protocol B, anoxia-lesioned rats): +15%
percent increase of latency After Electroshock vs corresponding group ([12]; Protocol B, control rats): +23%
inhibition of MAO-B in brain and liver (MAO-B [13]; 1 mg/kg): complete inhibition
IC-50 MAO-B (MAO-B [13]; brain): 0.07 mg/kg
IC-50 MAO-B (MAO-B [13]; liver): 0.06 mg/kg
striatal DOPAC [9, 17]: 6.0 ± 0.3 ng/mg protein
potentiation of tyramine pressor response (in words) ([14]; 1 mg/kg): no significant potentiation
potentiation of tyramine pressor response (in words) ([14]; 5 mg/kg): significant potentiation
inhibition of MAO-A (MAO-A [15]; rat brain, 0.5 mg/kg oral): no detectable inhibition
IC-50 MAO-A (MAO-A [15]; I.P., brain, 1 h after dose): 1.2 mg/kg
IC-50 MAO-A (MAO-A [15]; I.P., liver, 1 h after dose): 5 mg/kg
IC-50 MAO-A (MAO-A [15]; P.O., brain, 2 h after dose): >5 mg/kg
IC-50 MAO-A (MAO-A [15]; P.O., liver, 2 h after dose): >5 mg/kg

SMILES: NC(=O)N1c2ccccc2C=Cc2ccccc21 [carbamazepine]
effect on time to first focal seizure and onset of clonus (proconvulsive activity) [16]: do not show this effect

SMILES: O=C1NC(=O)C(c2ccccc2)(c2ccccc2)N1 [phenytoin]
effect on time to first focal seizure and onset of clonus (proconvulsive activity) [16]: do not show this effect
